Assay results published in patent US20200216417A1, “INHIBITORS OF FIBROBLAST ACTIVATION PROTEIN” (Praxis Biotech LLC, priority 2019, published 2020).
Read-outs that look alike come from different tables or passages of the source.

How the values were obtained:
[1] = target: T1, recombinant human DPP9 (rhDPP9) (Homo sapiens, UniProt Q86TI2); test: DPP9 inhibition assay, 10 ng rhDPP9, Tris-HCl/BSA buffer; assay type: biochemical; conditions: Table 3B
T1 construct: purchased R&S system / R&D systems (both sic) 5419-SE

[2] = target: T2, recombinant human PREP (rhPREP) (Homo sapiens, UniProt P48147); test: PREP enzymatic activity assay, Z-Gly-Pro-AMC; assay type: biochemical
T2 sequence (P48147 1-710): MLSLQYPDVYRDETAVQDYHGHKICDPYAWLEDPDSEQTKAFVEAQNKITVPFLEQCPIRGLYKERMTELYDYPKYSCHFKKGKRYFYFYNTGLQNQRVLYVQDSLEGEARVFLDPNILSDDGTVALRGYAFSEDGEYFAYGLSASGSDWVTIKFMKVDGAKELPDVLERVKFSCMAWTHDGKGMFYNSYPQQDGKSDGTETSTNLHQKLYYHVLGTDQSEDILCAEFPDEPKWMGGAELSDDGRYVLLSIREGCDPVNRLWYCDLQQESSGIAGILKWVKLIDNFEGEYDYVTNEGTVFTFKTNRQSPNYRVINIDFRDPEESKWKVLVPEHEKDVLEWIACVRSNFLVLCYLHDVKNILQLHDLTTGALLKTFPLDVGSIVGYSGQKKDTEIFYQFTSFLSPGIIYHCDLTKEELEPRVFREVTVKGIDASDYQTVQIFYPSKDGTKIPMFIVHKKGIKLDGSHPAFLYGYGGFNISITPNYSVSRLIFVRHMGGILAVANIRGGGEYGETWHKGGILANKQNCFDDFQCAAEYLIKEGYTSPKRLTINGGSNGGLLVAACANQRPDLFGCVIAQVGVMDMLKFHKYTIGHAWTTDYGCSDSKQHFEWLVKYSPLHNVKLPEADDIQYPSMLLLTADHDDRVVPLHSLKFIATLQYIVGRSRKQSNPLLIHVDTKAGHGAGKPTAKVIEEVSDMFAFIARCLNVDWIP

[3] = target: T3, recombinant human FAPα (rhFAPα) (Homo sapiens, UniProt Q12884); test: FAPα enzymatic exopeptidase (dipeptidase) activity assay, Z-Gly-Pro-AMC; assay type: biochemical
T3 construct: purchased R&S system (so in the source)
T3 sequence (Q12884 1-760): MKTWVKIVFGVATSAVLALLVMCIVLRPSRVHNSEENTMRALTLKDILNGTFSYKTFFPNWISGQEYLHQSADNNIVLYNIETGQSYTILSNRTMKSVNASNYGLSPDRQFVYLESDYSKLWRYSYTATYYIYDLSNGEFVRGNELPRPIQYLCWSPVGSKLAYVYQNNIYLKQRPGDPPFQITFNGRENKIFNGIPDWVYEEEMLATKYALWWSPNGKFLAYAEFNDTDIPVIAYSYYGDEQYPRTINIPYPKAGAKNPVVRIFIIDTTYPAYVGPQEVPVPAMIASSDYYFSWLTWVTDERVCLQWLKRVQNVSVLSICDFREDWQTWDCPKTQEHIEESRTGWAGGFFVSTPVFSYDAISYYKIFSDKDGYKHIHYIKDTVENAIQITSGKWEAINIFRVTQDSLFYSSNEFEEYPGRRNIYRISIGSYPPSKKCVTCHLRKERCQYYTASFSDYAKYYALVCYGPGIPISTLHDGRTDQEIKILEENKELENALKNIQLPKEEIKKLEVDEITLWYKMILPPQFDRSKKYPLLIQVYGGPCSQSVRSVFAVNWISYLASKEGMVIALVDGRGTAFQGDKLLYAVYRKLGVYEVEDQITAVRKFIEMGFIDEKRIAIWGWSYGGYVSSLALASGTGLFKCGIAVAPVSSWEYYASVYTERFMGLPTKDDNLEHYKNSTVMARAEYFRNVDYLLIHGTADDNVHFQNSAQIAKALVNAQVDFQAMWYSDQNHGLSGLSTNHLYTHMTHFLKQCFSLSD

FAPα = target: T4, FAPα (Mus musculus, UniProt P97321); test: FAPα enzymatic activity in mouse plasma (PRXS-AMC); assay type: biochemical, C57BL/6 mouse; conditions: PRXS-AMC substrate, read-out: mouse plasma FAPα (PRXS-AMC) (exo IC50)
T4 construct: from tissue; host or cells: C57BL/6 mouse plasma (EDTA)
T4 sequence (P97321 24-761 limits assumed): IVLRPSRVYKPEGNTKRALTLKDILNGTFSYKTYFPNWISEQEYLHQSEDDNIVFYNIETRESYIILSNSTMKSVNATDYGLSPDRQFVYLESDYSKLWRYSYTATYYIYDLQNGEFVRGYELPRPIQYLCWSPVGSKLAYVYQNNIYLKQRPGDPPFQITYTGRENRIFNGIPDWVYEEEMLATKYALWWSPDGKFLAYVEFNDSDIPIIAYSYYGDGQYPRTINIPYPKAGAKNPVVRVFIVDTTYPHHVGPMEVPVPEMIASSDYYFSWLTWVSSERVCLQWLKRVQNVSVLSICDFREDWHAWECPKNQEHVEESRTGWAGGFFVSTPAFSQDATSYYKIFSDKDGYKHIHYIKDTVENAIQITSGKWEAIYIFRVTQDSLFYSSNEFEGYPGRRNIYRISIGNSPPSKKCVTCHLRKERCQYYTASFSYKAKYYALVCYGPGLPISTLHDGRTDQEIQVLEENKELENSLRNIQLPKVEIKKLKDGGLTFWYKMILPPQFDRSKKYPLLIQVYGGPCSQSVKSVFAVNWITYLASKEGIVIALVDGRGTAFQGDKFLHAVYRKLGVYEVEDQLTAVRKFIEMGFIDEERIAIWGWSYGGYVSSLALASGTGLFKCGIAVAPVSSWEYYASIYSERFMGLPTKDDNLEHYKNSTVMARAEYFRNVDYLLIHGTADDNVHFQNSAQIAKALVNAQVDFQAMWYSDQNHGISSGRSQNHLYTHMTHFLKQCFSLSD
Procedure: Approximately 500 μL of whole blood from one C57BL/6 mouse was harvested into BD Microtainer® tubes (K2) EDTA (#365974, Becton Dickinson and Co.) via terminal cardiac puncture. The blood sample was immediately centrifuged at approximately 9000 g at 4° C. for 5 minutes. Plasma was separated and stored at −80° C. in aliquots of 300 μL. To assay baseline FAPα enzymatic exopeptidase activity, 5 μL of thawed, plasma was diluted (1:5) with cFAP buffer (100 mM Tris-HCl, 400 mM NaCl, 50 mM salicylic acid, 1 mM EDTA, pH 7.5) and mixed with 35 μL of the same buffer before being pre-incubated with different concentrations of 10 μL of test compounds or DMSO vehicle for 15 minutes at 37° C. in 96-well black plates (Nunc, #237108). After pre-incubation, 50 μL of 200 μM PRXS-AMC were added to the mixture. The assay was performed for 1 hour at 37° C. protected from light. 7-Amino-4-Methylcoumarin (AMC) release was detected measuring fluorescence at an excitation wavelength of 380 nm and an emission wavelength of 460 nm using a Multifunction Microplate Reader (Synergy 4, Biotek). All measurements were carried out at least as a single point.

[4] = exopeptidase inhibition at 1 μM test compound, Table 2, read-out: rhFAPα (% exo inh @ 1 μM)
[5] = exopeptidase inhibition at 1 μM test compound, Table 3B, read-out: rhFAPα % exo inh @ 1 μM
[6] = exopeptidase, Table 2, read-out: rhFAPα (exo IC50)
[7] = exopeptidase, Table 3A, read-out: rhFAPα (exo IC50)
[8] = read-out: rhFAPα % exo inh @ 1 μM
[9] = read-out: rhFAPα (% exo inh @ 1 μM)

T1 sequence (Q86TI2 whole entry): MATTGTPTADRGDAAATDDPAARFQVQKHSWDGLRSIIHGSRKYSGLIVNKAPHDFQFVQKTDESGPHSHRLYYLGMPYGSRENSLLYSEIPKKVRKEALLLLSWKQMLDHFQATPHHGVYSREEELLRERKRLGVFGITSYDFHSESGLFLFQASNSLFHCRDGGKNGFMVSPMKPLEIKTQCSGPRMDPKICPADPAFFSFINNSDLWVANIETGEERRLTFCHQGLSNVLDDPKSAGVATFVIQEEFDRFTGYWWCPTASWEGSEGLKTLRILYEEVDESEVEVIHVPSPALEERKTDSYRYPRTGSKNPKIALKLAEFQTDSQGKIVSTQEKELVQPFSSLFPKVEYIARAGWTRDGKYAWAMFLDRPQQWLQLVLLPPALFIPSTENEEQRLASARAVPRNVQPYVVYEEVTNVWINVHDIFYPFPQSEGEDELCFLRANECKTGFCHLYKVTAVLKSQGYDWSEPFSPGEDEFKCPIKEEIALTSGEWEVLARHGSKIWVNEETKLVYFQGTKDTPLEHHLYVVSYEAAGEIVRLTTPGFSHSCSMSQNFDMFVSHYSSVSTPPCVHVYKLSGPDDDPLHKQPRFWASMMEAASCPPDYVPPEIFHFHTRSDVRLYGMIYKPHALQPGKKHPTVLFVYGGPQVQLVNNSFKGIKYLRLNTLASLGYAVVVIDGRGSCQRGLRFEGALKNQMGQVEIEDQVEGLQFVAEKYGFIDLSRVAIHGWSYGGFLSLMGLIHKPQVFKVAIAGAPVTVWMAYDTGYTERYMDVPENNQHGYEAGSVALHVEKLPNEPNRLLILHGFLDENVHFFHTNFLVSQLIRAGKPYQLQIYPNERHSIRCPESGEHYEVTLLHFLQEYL

SMILES	IC50 [1] [nM]	IC50 ([2]; Table 3A) [nM]	IC50 ([2]; Table 3B) [nM]	IC50 ([3]; Table 3B, read-out: rhFAP IC50) [nM]	inhibition at 1 µM [3, 4] [%]	inhibition at 1 µM [3, 5] [%]	IC50 [3, 6] [nM]	IC50 [3, 7] [nM]	IC50 (FAPα) [nM]	inhibition at 1 µM [3, 8] [%]	inhibition at 1 µM [3, 9] [%]
N#C[C@@H]1CC(F)(F)CN1C(=O)CNC(=O)c1ccncc1NCc1ccc(F)cc1 [Compound 2, (S)—N-(2-(2-cyano-4,4-difluoropyrrolidin-1-yl)-2-oxoethyl)-3-((4-fluorobenzyl)amino)isonicotinamide]	> 10000	> 10000	> 10000	< 1000	> 50	> 50	< 1000	< 1000	< 1000		
COc1ccc(C(=O)Nc2cnccc2C(=O)NCC(=O)N2CC(F)(F)C[C@H]2C#N)cc1 [Compound 3, (S)—N-(2-(2-cyano-4,4-difluoropyrrolidin-1-yl)-2-oxoethyl)-3-(4-methoxybenzamido)isonicotinamide]	1000 to 10000	> 10000	> 10000	< 1000			< 1000	< 1000	< 1000	> 50	> 50
N#C[C@@H]1CC(F)(F)CN1C(=O)CNC(=O)c1ccncc1/C=C/c1ccc(Cl)cc1 [Compound 9, (S,E)-3-(4-chlorostyryl)-N-(2-(2-cyano-4,4-difluoropyrrolidin-1-yl)-2-oxoethyl)isonicotinamide]	< 1000	> 10000	> 10000	< 1000			< 1000	< 1000	< 1000	> 50	> 50

Further lines, with some results ahead:

IC50 [1] [nM]	IC50 ([2]; Table 3A) [nM]	IC50 ([2]; Table 3B) [nM]	IC50 ([3]; Table 3B, read-out: rhFAP IC50) [nM]	inhibition at 1 µM [3, 4] [%]	inhibition at 1 µM [3, 5] [%]	IC50 [3, 6] [nM]	IC50 [3, 7] [nM]	IC50 (FAPα) [nM]	SMILES	inhibition at 1 µM [3, 8] [%]	inhibition at 1 µM [3, 9] [%]
1000 to 10000	> 10000	> 10000	< 1000	> 50	> 50	< 1000	< 1000	< 1000	N#C[C@@H]1CC(F)(F)CN1C(=O)CNC(=O)c1ccncc1NC(=O)COc1ccc(Cl)c(F)c1 [Compound 5, (S)-3-(2-(4-chloro-3-fluorophenoxy)acetamido)-N-(2-(2-cyano-4,4-difluoropyrrolidin-1-yl)-2-oxoethyl)isonicotinamide]		
1000 to 10000	1000 to 10000	1000 to 10000	< 1000	> 50	> 50	< 1000	< 1000	< 1000	N#C[C@@H]1CC(F)(F)CN1C(=O)CNC(=O)c1ccncc1Cc1ccccc1F [Compound 7, (S)—N-(2-(2-cyano-4,4-difluoropyrrolidin-1-yl)-2-oxoethyl)-3-(2-fluorobenzyl)isonicotinamide]		
1000 to 10000	> 10000	> 10000	< 1000	> 50	> 50	< 1000	< 1000	< 1000	N#C[C@@H]1CC(F)(F)CN1C(=O)CNC(=O)c1ccncc1Cc1ccc(F)cc1 [Compound 8, (S)—N-(2-(2-cyano-4,4-difluoropyrrolidin-1-yl)-2-oxoethyl)-3-(4-fluorobenzyl)isonicotinamide]		
